Columns and labels:
PARG = PARG (Homo sapiens, UniProt Q86W56); experiment: Biochemical assay (PARG, TFMU-ADPr substrate); conditions: PARG, TFMU-ADPr substrate
HCC1806 = experiment: Cell viability assay (CellTiter-Glo); format: cell-based, Human; conditions: Homo sapiens, HCC1806, 168 h, HCC1806, 7 days, CellTiter-Glo; read-out: IC50 (nM) in cell viability assay

Chain of PARG (Q86W56 whole entry): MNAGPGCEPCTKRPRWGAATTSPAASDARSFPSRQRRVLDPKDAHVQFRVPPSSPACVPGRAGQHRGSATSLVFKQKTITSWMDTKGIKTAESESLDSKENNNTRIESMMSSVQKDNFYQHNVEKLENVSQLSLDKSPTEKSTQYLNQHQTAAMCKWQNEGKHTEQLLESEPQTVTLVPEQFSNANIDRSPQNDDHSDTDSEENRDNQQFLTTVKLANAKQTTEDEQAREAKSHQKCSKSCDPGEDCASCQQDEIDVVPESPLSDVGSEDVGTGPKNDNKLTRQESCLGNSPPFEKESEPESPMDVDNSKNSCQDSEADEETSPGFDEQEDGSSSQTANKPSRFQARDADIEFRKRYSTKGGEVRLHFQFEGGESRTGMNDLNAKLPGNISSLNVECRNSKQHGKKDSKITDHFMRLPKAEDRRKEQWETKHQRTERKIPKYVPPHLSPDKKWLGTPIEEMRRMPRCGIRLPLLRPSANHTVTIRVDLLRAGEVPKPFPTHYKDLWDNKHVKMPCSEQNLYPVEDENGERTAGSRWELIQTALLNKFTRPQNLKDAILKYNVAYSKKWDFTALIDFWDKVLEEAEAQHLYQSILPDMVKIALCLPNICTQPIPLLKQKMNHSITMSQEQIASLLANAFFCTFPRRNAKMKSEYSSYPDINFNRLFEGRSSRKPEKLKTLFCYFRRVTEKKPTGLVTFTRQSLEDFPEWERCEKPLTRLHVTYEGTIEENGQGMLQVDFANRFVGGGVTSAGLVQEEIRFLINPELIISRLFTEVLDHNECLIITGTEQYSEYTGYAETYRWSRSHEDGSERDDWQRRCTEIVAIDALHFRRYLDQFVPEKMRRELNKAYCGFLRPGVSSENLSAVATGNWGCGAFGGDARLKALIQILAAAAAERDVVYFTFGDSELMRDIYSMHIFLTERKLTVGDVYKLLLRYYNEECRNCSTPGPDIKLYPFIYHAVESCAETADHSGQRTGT

| Structure (SMILES) | IC50 (PARG) [nM] | IC50 (HCC1806) [nM] |
| --- | --- | --- |
| CC(C)C(=O)N1CCN(c2cc(S(=O)(=O)NC3(C#N)CC3)cn3c(-c4nnc(C(F)F)s4)cnc23)C[C@H]1C [Example 206, (R)-N-(1-cyanocyclopropyl)-3-(5-(difluoromethyl)-1,3,4-thiadiazol-2-yl)-8-(4-isobutyryl-3-methylpiperazin-1-yl)imidazo[1,2-a]pyridine-6-sulfonamide] | 21.9 | 1180 |
| CC(C)C(=O)N1CCN(c2cc(S(=O)(=O)NC3(C#N)CC3)cn3c(-c4nnc(C(F)(F)F)s4)cnc23)CC1 [Example 207, N-(1-cyanocyclopropyl)-8-(4-isobutyrylpiperazin-1-yl)-3-(5-(trifluoromethyl)-1,3,4-thiadiazol-2-yl)imidazo[1,2-a]pyridine-6-sulfonamide] | 39.8 | 1200 |
| CC(C)C(=O)N1CCN(c2cc(S(=O)(=O)NC3CC3)cn3c(-c4nnc(C(F)(F)F)s4)cnc23)CC1 [Example 208, N-cyclopropyl-8-(4-isobutyrylpiperazin-1-yl)-3-(5-(trifluoromethyl)-1,3,4-thiadiazol-2-yl)imidazo[1,2-a]pyridine-6-sulfonamide] | 110 | 3350 |
| N#CC1(NS(=O)(=O)c2cc(N3CCC4(CC3)COC4)c3cnc(-c4nnc(C(F)(F)F)s4)n3c2)CC1 [Example 209, N-(1-cyanocyclopropyl)-8-(2-oxa-7-azaspiro[3.5]nonan-7-yl)-3-(5-(trifluoromethyl)-1,3,4-thiadiazol-2-yl)imidazo[1,5-a]pyridine-6-sulfonamide] | 60.3 | 765 |
| CC(C)C(=O)N1CCN(c2cc(S(=O)(=O)NC3CC3)cn3c(-c4nnc(C(F)(F)F)s4)ncc23)CC1 [Example 210, N-cyclopropyl-8-(4-isobutyrylpiperazin-1-yl)-3-(5-(trifluoromethyl)-1,3,4-thiadiazol-2-yl)imidazo[1,5-a]pyridine-6-sulfonamide] | 83.2 | 929 |
| COc1ccc(C(=O)/C=C/C(=O)N2CCN(c3cc(S(=O)(=O)NC4(C#N)CC4)cn4c(-c5nnc(C(F)(F)F)s5)ncc34)CC2)cc1 [Example 211, (E)-N-(1-cyanocyclopropyl)-8-(4-(4-(4-methoxyphenyl)-4-oxobut-2-enoyl)piperazin-1-yl)-3-(5-(trifluoromethyl)-1,3,4-thiadiazol-2-yl)imidazo[1,5-a]pyridine-6-sulfonamide] | 209 | 222 |
| CC(C)S(=O)(=O)N1CCN(c2cc(S(=O)(=O)NC3CC3)cn3c(-c4nnc(C(F)(F)F)s4)ncc23)CC1 [Example 215, N-cyclopropyl-8-(4-(isopropylsulfonyl)piperazin-1-yl)-3-(5-(trifluoromethyl)-1,3,4-thiadiazol-2-yl)imidazo[1,5-a]pyridine-6-sulfonamide] | 69.2 | 1500 |
| O=C(C1COC1)N1CCN(c2cc(S(=O)(=O)NC3CC3)cn3c(-c4nnc(C(F)(F)F)s4)ncc23)CC1 [Example 217, N-cyclopropyl-8-(4-(oxetane-3-carbonyl)piperazin-1-yl)-3-(5-(trifluoromethyl)-1,3,4-thiadiazol-2-yl)imidazo[1,5-a]pyridine-6-sulfonamide] | 66.1 | 3070 |
| O=C(C1CCN(c2cc(S(=O)(=O)NC3CC3)cn3c(-c4nnc(C(F)(F)F)s4)ncc23)CC1)N1CCC1 [Example 219, 8-(4-(azetidine-1-carbonyl)piperidin-1-yl)-N-cyclopropyl-3-(5-(trifluoromethyl)-1,3,4-thiadiazol-2-yl)imidazo[1,5-a]pyridine-6-sulfonamide] | 100 | 4610 |
| N#CC1(NS(=O)(=O)c2cc(N3CCC4=C(COC4=O)C3)c3cnc(-c4nnc(C(F)(F)F)s4)n3c2)CC1 [Example 220, N-(1-cyanocyclopropyl)-8-(1-oxo-1,4,6,7-tetrahydrofuro[3,4-c]pyridin-5(3H)-yl)-3-(5-(trifluoromethyl)-1,3,4-thiadiazol-2-yl)imidazo[1,5-a]pyridine-6-sulfonamide] | 57.5 | 664 |
| CC(C)C(=O)N1CCN(c2cc(S(=O)(=O)NC3(C#N)CC3)cn3c(-c4nnc(C(F)F)s4)ncc23)C[C@H]1CO [Example 222, (S)-N-(1-cyanocyclopropyl)-3-(5-(difluoromethyl)-1,3,4-thiadiazol-2-yl)-8-(3-(hydroxymethyl)-4-isobutyrylpiperazin-1-yl)imidazo[1,5-a]pyridine-6-sulfonamide] | 2.09 | 1670 |
| COC[C@@H]1CN(c2cc(S(=O)(=O)NC3(C#N)CC3)cn3c(-c4nnc(C(F)F)s4)ncc23)CCN1C(=O)C(C)C [Example 223, (S)-N-(1-cyanocyclopropyl)-3-(5-(difluoromethyl)-1,3,4-thiadiazol-2-yl)-8-(4-isobutyryl-3-(methoxymethyl)piperazin-1-yl)imidazo[1,5-a]pyridine-6-sulfonamide] | 1.45 | 250 |
| COC1(C(=O)N2CCN(c3cc(S(=O)(=O)NC4(C#N)CC4)cn4c(-c5nnc(C(F)(F)F)s5)ncc34)CC2)CC1 [Example 228, N-(1-cyanocyclopropyl)-8-(4-(1-methoxycyclopropane-1-carbonyl)piperazin-1-yl)-3-(5-(trifluoromethyl)-1,3,4-thiadiazol-2-yl)imidazo[1,5-a]pyridine-6-sulfonamide] | 0.38 | 107 |
| N#CC1(NS(=O)(=O)c2cc(N3CCN(C(=O)N4CCCC4)CC3)c3cnc(-c4nnc(C(F)(F)F)s4)n3c2)CC1 [Example 229, N-(1-cyanocyclopropyl)-8-(4-(pyrrolidine-1-carbonyl)piperazin-1-yl)-3-(5-(trifluoromethyl)-1,3,4-thiadiazol-2-yl)imidazo[1,5-a]pyridine-6-sulfonamide] | 3.31 | 800 |

Second part, the molecule after the results:

| IC50 (PARG) [nM] | IC50 (HCC1806) [nM] | Structure (SMILES) |
| --- | --- | --- |
| 110 | 3000 | CN(C)C(=O)C1CCN(c2cc(S(=O)(=O)NC3(C#N)CC3)cn3c(-c4nnc(C(F)F)s4)ncc23)CC1 [Example 212, 1-(6-(N-(1-cyanocyclopropyl)sulfamoyl)-3-(5-(difluoromethyl)-1,3,4-thiadiazol-2-yl)imidazo[1,5-a]pyridin-8-yl)-N,N-dimethylpiperidine-4-carboxamide] |
| 31.6 | 1200 | N#CC1(NS(=O)(=O)c2cc(N3CCC(n4cncn4)CC3)c3cnc(-c4nnc(C(F)(F)F)s4)n3c2)CC1 [Example 213, 8-(4-(1H-1,2,4-triazol-1-yl)piperidin-1-yl)-N-(1-cyanocyclopropyl)-3-(5-(trifluoromethyl)-1,3,4-thiadiazol-2-yl)imidazo[1,5-a]pyridine-6-sulfonamide] |
| 174 | 4000 | CN(C)C(=O)C1CCN(c2cc(S(=O)(=O)NC3(C#N)CC3)cn3c(-c4nnc(C(F)(F)F)s4)ncc23)CC1 [Example 214, 1-(6-(N-(1-cyanocyclopropyl)sulfamoyl)-3-(5-(trifluoromethyl)-1,3,4-thiadiazol-2-yl)imidazo[1,5-a]pyridin-8-yl)-N,N-dimethylpiperidine-4-carboxamide] |
| 31.6 | 2340 | CC(=O)N1CCN(c2cc(S(=O)(=O)NC3(C#N)CC3)cn3c(-c4nnc(C(F)(F)F)s4)ncc23)C[C@H]1C [Example 216, (R)-8-(4-acetyl-3-methylpiperazin-1-yl)-N-(1-cyanocyclopropyl)-3-(5-(trifluoromethyl)-1,3,4-thiadiazol-2-yl)imidazo[1,5-a]pyridine-6-sulfonamide] |
| 39.8 | 1050 | N#CC1(NS(=O)(=O)c2cc(N3CCC(n4ccnn4)CC3)c3cnc(-c4nnc(C(F)(F)F)s4)n3c2)CC1 [Example 218, 8-(4-(1H-1,2,3-triazol-1-yl)piperidin-1-yl)-N-(1-cyanocyclopropyl)-3-(5-(trifluoromethyl)-1,3,4-thiadiazol-2-yl)imidazo[1,5-a]pyridine-6-sulfonamide] |
| 43.7 | 150 | N#CC1(NS(=O)(=O)c2cc(N3CCC(c4nnco4)CC3)c3cnc(-c4nnc(C(F)(F)F)s4)n3c2)CC1 [Example 221, 8-(4-(1,3,4-oxadiazol-2-yl)piperidin-1-yl)-N-(1-cyanocyclopropyl)-3-(5-(trifluoromethyl)-1,3,4-thiadiazol-2-yl)imidazo[1,5-a]pyridine-6-sulfonamide] |
| 13.8 | 1020 | CC(C)(F)C(=O)N1CCN(c2cc(S(=O)(=O)NC3(C#N)CC3)cn3c(-c4nnc(C(F)(F)F)s4)ncc23)CC1 [Example 224, N-(1-cyanocyclopropyl)-8-(4-(2-fluoro-2-methylpropanoyl)piperazin-1-yl)-3-(5-(trifluoromethyl)-1,3,4-thiadiazol-2-yl)imidazo[1,5-a]pyridine-6-sulfonamide] |
| 7.94 | 600 | CC1(C(=O)N2CCN(c3cc(S(=O)(=O)NC4(C#N)CC4)cn4c(-c5nnc(C(F)(F)F)s5)ncc34)CC2)CC1 [Example 225, N-(1-cyanocyclopropyl)-8-(4-(1-methylcyclopropane-1-carbonyl)piperazin-1-yl)-3-(5-(trifluoromethyl)-1,3,4-thiadiazol-2-yl)imidazo[1,5-a]pyridine-6-sulfonamide] |
| 26.3 | 4850 | N#CC1(NS(=O)(=O)c2cc(N3CCN(C(=O)C4COC4)CC3)c3cnc(-c4nnc(C(F)(F)F)s4)n3c2)CC1 [Example 226, N-(1-cyanocyclopropyl)-8-(4-(oxetane-3-carbonyl)piperazin-1-yl)-3-(5-(trifluoromethyl)-1,3,4-thiadiazol-2-yl)imidazo[1,5-a]pyridine-6-sulfonamide] |
| 120 | 8000 | N#CC1(NS(=O)(=O)c2cc(N3CC[C@@H](O)C3)c3cnc(-c4nnc(C(F)(F)F)s4)n3c2)CC1 [Example 230, (R)-N-(1-cyanocyclopropyl)-8-(3-hydroxypyrrolidin-1-yl)-3-(5-(trifluoromethyl)-1,3,4-thiadiazol-2-yl)imidazo[1,5-a]pyridine-6-sulfonamide] |

Reference: US20260258035A1, “FIVE-MEMBERED AND SIX-MEMBERED NITROGEN-CONTAINING COMPOUND, AND INTERMEDIATE, PREPARATION METHOD AND USE THEREOF” (HANGZHOU SYNRX THERAPEUTICS BIOMEDICAL TECHNOLOGY CO., LTD., priority 2022, published 2026)
